Assay results: ChEMBL document CHEMBL4477260, “Arylazolyl(azinyl)thioacetanilides. Part 20: Discovery of novel purinylthioacetanilides derivatives as potent HIV-1 NNRTIs via a structure-based bioisosterism approach” (Bioorg Med Chem, 2016)

Tested on: Human immunodeficiency virus 1
Test: Antiviral activity against human HIV-1 3B infected in human MT4 cells assessed as protection from virus-induced cytopathic effect measured 5 days post infection by MTT assay
Type: functional, organism-based
Settings: Human immunodeficiency virus 1, 3B, MT4, 120 h

| Structure (SMILES) | EC50 [µM] |
| --- | --- |
| CCOC(=O)c1ccc(NC(=O)CSc2nc3cnc(Cl)nc3n2-c2ccc(C3CC3)c3ccccc23)c(Br)c1 | > 150 |
| CCOC(=O)c1ccc(NC(=O)CSc2nc3cnc(Cl)nc3n2-c2cccc3ccccc23)c(Br)c1 | 3.43 |
| NC(=O)c1ccc(NC(=O)CSc2nc3cnc(Cl)nc3n2-c2cccc3ccccc23)c(Cl)c1 | 4.56 |
| NC(=O)c1ccc(NC(=O)CSc2nc3cnc(Cl)nc3n2-c2cccc3ccccc23)c(Br)c1 | 1.8 |
| CC(C)Nc1cccnc1N1CCN(C(=O)c2cc3cc(NS(C)(=O)=O)ccc3[nH]2)CC1 [DELAVIRDINE] | 0.0383 |
| NC(=O)c1ccc(NC(=O)CSc2nc3cnc(Cl)nc3n2-c2ccc(C3CC3)c3ccccc23)c(Cl)c1 | > 6.39 |
| CC(Sc1nc2cnc(Cl)nc2n1-c1ccc(C2CC2)c2ccccc12)C(=O)Nc1ccc(C(N)=O)cc1Cl (configuration not stated) | > 25.1 |
| Cc1cc(C#N)cc(C)c1Oc1nc(Nc2ccc(C#N)cc2)nc(N)c1Br [ETRAVIRINE] | 0.00335 |
| CC(Sc1nc2cnc(Cl)nc2n1-c1ccc(C2CC2)c2ccccc12)C(=O)Nc1ccc(S(N)(=O)=O)cc1Cl (configuration not stated) | 4.04 |
| CC(Sc1nc2cnc(Cl)nc2n1-c1cccc2ccccc12)C(=O)Nc1ccc(C(N)=O)cc1Cl (configuration not stated) | 2.73 |
| COC(=O)c1ccc(NC(=O)CSc2nc3cnc(Cl)nc3n2-c2cccc3ccccc23)c(Br)c1 | 1.66 |

Tested on: Human immunodeficiency virus 1
Test: Antiviral activity against human HIV-1 3B harboring RES056 mutant infected in human MT4 cells assessed as protection from virus-induced cytopathic effect measured 5 days post infection by MTT assay
Type: functional, organism-based
Settings: Human immunodeficiency virus 1, 3B, MT4, 120 h

| Structure (SMILES) | EC50 [µM] |
| --- | --- |
| CCOC(=O)c1ccc(NC(=O)CSc2nc3cnc(Cl)nc3n2-c2cccc3ccccc23)c(Br)c1 | > 109 |
| NC(=O)c1ccc(NC(=O)CSc2nc3cnc(Cl)nc3n2-c2cccc3ccccc23)c(Cl)c1 | > 22.7 |
| NC(=O)c1ccc(NC(=O)CSc2nc3cnc(Cl)nc3n2-c2cccc3ccccc23)c(Br)c1 | > 21.6 |
| CC(Sc1nc2cnc(Cl)nc2n1-c1ccc(C2CC2)c2ccccc12)C(=O)Nc1ccc(S(N)(=O)=O)cc1Cl (configuration not stated) | ≥ 5.74 |
| CC(Sc1nc2cnc(Cl)nc2n1-c1cccc2ccccc12)C(=O)Nc1ccc(C(N)=O)cc1Cl (configuration not stated) | > 23.6 |
| COC(=O)c1ccc(NC(=O)CSc2nc3cnc(Cl)nc3n2-c2cccc3ccccc23)c(Br)c1 | > 156 |

Tested on: not listed separately
Test: Cytotoxicity against mock-infected human MT4 cells assessed as reduction of cell viability after 5 days by MTT assay
Type: cell-based
Settings: not given

| Structure (SMILES) | CC50 at 120 h [µM] |
| --- | --- |
| Cc1ccnc2c1NC(=O)c1cccnc1N2C1CC1 [NEVIRAPINE] | ≥ 15 |
| CCOC(=O)c1ccc(NC(=O)CSc2nc3cnc(Cl)nc3n2-c2ccc(C3CC3)c3ccccc23)c(Br)c1 | 150 |
| CCOC(=O)c1ccc(NC(=O)CSc2nc3cnc(Cl)nc3n2-c2cccc3ccccc23)c(Br)c1 | 109 |
| NC(=O)c1ccc(NC(=O)CSc2nc3cnc(Cl)nc3n2-c2cccc3ccccc23)c(Cl)c1 | 22.7 |
| NC(=O)c1ccc(NC(=O)CSc2nc3cnc(Cl)nc3n2-c2cccc3ccccc23)c(Br)c1 | 21.6 |
| CC(C)Nc1cccnc1N1CCN(C(=O)c2cc3cc(NS(C)(=O)=O)ccc3[nH]2)CC1 [DELAVIRDINE] | 36.8 |
| O=C1Nc2ccc(Cl)cc2[C@@](C#CC2CC2)(C(F)(F)F)O1 [EFAVIRENZ] | ≥ 6.34 |
| NC(=O)c1ccc(NC(=O)CSc2nc3cnc(Cl)nc3n2-c2ccc(C3CC3)c3ccccc23)c(Cl)c1 | 6.39 |
| CC(Sc1nc2cnc(Cl)nc2n1-c1ccc(C2CC2)c2ccccc12)C(=O)Nc1ccc(C(N)=O)cc1Cl (configuration not stated) | 25.1 |
| Cc1cc(C#N)cc(C)c1Oc1nc(Nc2ccc(C#N)cc2)nc(N)c1Br [ETRAVIRINE] | 2.46 |
| CC(Sc1nc2cnc(Cl)nc2n1-c1ccc(C2CC2)c2ccccc12)C(=O)Nc1ccc(S(N)(=O)=O)cc1Cl (configuration not stated) | 17.6 |
| CC(Sc1nc2cnc(Cl)nc2n1-c1cccc2ccccc12)C(=O)Nc1ccc(C(N)=O)cc1Cl (configuration not stated) | 23.6 |
| COC(=O)c1ccc(NC(=O)CSc2nc3cnc(Cl)nc3n2-c2cccc3ccccc23)c(Br)c1 | 156 |

Tested on: not listed separately
Test: Selectivity index, ratio of CC50 for mock-infected human MT4 cells to EC50 for human HIV-1 3B infected in human MT4 cells
Type: toxicity, cell-based
Settings: MT4 cells (mock-infected for CC50, HIV-1-infected for EC50)

| Structure (SMILES) | selectivity ratio |
| --- | --- |
| CCOC(=O)c1ccc(NC(=O)CSc2nc3cnc(Cl)nc3n2-c2ccc(C3CC3)c3ccccc23)c(Br)c1 | < 1 |
| CCOC(=O)c1ccc(NC(=O)CSc2nc3cnc(Cl)nc3n2-c2cccc3ccccc23)c(Br)c1 | 32 |
| NC(=O)c1ccc(NC(=O)CSc2nc3cnc(Cl)nc3n2-c2cccc3ccccc23)c(Cl)c1 | 5 |
| NC(=O)c1ccc(NC(=O)CSc2nc3cnc(Cl)nc3n2-c2cccc3ccccc23)c(Br)c1 | 12 |
| NC(=O)c1ccc(NC(=O)CSc2nc3cnc(Cl)nc3n2-c2ccc(C3CC3)c3ccccc23)c(Cl)c1 | < 1 |
| CC(Sc1nc2cnc(Cl)nc2n1-c1ccc(C2CC2)c2ccccc12)C(=O)Nc1ccc(C(N)=O)cc1Cl (configuration not stated) | < 1 |
| CC(Sc1nc2cnc(Cl)nc2n1-c1ccc(C2CC2)c2ccccc12)C(=O)Nc1ccc(S(N)(=O)=O)cc1Cl (configuration not stated) | 4 |
| CC(Sc1nc2cnc(Cl)nc2n1-c1cccc2ccccc12)C(=O)Nc1ccc(C(N)=O)cc1Cl (configuration not stated) | 9 |
| COC(=O)c1ccc(NC(=O)CSc2nc3cnc(Cl)nc3n2-c2cccc3ccccc23)c(Br)c1 | 94 |

Tested on: not listed separately
Test: Selectivity index, ratio of CC50 for mock-infected human MT4 cells to EC50 for human HIV-1 3B harboring RES056 mutant infected in human MT4 cells
Type: toxicity, cell-based
Settings: MT4 cells (mock-infected for CC50, HIV-1-infected for EC50)

| Structure (SMILES) | selectivity ratio |
| --- | --- |
| CCOC(=O)c1ccc(NC(=O)CSc2nc3cnc(Cl)nc3n2-c2cccc3ccccc23)c(Br)c1 | < 1 |
| NC(=O)c1ccc(NC(=O)CSc2nc3cnc(Cl)nc3n2-c2cccc3ccccc23)c(Cl)c1 | < 1 |
| NC(=O)c1ccc(NC(=O)CSc2nc3cnc(Cl)nc3n2-c2cccc3ccccc23)c(Br)c1 | < 1 |
| CC(Sc1nc2cnc(Cl)nc2n1-c1ccc(C2CC2)c2ccccc12)C(=O)Nc1ccc(S(N)(=O)=O)cc1Cl (configuration not stated) | ≤ 3 |
| CC(Sc1nc2cnc(Cl)nc2n1-c1cccc2ccccc12)C(=O)Nc1ccc(C(N)=O)cc1Cl (configuration not stated) | < 1 |
| COC(=O)c1ccc(NC(=O)CSc2nc3cnc(Cl)nc3n2-c2cccc3ccccc23)c(Br)c1 | < 1 |

Tested on: Human immunodeficiency virus 1
Test: Antiviral activity against human HIV-1 3B harboring reverse transcriptase Y181C mutant infected in human MT4 cells assessed as protection from virus-induced cytopathic effect measured 5 days post infection by MTT assay
Type: functional, organism-based
Settings: Human immunodeficiency virus 1, 3B, MT4, 120 h

| Structure (SMILES) | EC50 [µM] |
| --- | --- |
| Cc1cc(C#N)cc(C)c1Oc1nc(Nc2ccc(C#N)cc2)nc(N)c1Br [ETRAVIRINE] | 0.015 |

Tested on: not listed separately
Test: Selectivity index, ratio of CC50 for mock-infected human MT4 cells to EC50 for human HIV-1 3B harboring L100I mutant infected in human MT4 cells
Type: toxicity, cell-based
Settings: MT4 cells (mock-infected for CC50, HIV-1-infected for EC50)

| Structure (SMILES) | selectivity ratio |
| --- | --- |
| CC(C)Nc1cccnc1N1CCN(C(=O)c2cc3cc(NS(C)(=O)=O)ccc3[nH]2)CC1 [DELAVIRDINE] | 14 |

Tested on: not listed separately
Test: Selectivity index, ratio of CC50 for mock-infected human MT4 cells to EC50 for human HIV-1 3B harboring K103N mutant infected in human MT4 cells
Type: toxicity, cell-based
Settings: MT4 cells (mock-infected for CC50, HIV-1-infected for EC50)

| Structure (SMILES) | selectivity ratio |
| --- | --- |
| CC(C)Nc1cccnc1N1CCN(C(=O)c2cc3cc(NS(C)(=O)=O)ccc3[nH]2)CC1 [DELAVIRDINE] | 12 |

Tested on: not listed separately
Test: Selectivity index, ratio of CC50 for mock-infected human MT4 cells to EC50 for human HIV-1 3B harboring Y181C mutant infected in human MT4 cells
Type: toxicity, cell-based
Settings: MT4 cells (mock-infected for CC50, HIV-1-infected for EC50)

| Structure (SMILES) | selectivity ratio |
| --- | --- |
| CC(C)Nc1cccnc1N1CCN(C(=O)c2cc3cc(NS(C)(=O)=O)ccc3[nH]2)CC1 [DELAVIRDINE] | 15 |

Tested on: not listed separately
Test: Selectivity index, ratio of CC50 for mock-infected human MT4 cells to EC50 for human HIV-1 3B harboring Y188L mutant infected in human MT4 cells
Type: toxicity, cell-based
Settings: MT4 cells (mock-infected for CC50, HIV-1-infected for EC50)

| Structure (SMILES) | selectivity ratio |
| --- | --- |
| CC(C)Nc1cccnc1N1CCN(C(=O)c2cc3cc(NS(C)(=O)=O)ccc3[nH]2)CC1 [DELAVIRDINE] | 44 |

Tested on: not listed separately
Test: Selectivity index, ratio of CC50 for mock-infected human MT4 cells to EC50 for human HIV-1 3B harboring E138K mutant infected in human MT4 cells
Type: toxicity, cell-based
Settings: MT4 cells (mock-infected for CC50, HIV-1-infected for EC50)

| Structure (SMILES) | selectivity ratio |
| --- | --- |
| CC(C)Nc1cccnc1N1CCN(C(=O)c2cc3cc(NS(C)(=O)=O)ccc3[nH]2)CC1 [DELAVIRDINE] | 715 |

Tested on: not listed separately
Test: Selectivity index, ratio of CC50 for mock-infected human MT4 cells to EC50 for human HIV-1 3B harboring F227L/V106A double mutant infected in human MT4 cells
Type: toxicity, cell-based
Settings: MT4 cells (mock-infected for CC50, HIV-1-infected for EC50)

| Structure (SMILES) | selectivity ratio |
| --- | --- |
| CC(C)Nc1cccnc1N1CCN(C(=O)c2cc3cc(NS(C)(=O)=O)ccc3[nH]2)CC1 [DELAVIRDINE] | 16 |
